Series [1] has as its target T1, Human NLRP3 (Homo sapiens (Human), UniProt Q96P20). In words: Human NLRP3 speck formation assay (Test A), nigericin triggered ASC-speck formation in ASC-GFP reporter monocytes.
The subject of series [2] is IL-1β production. In words: LPS/ATP test in mice, peritoneal IL-1β by ELISA. The following applies: Mus musculus, LPS/ATP i.p.; for inhibition at 1 mg/kg: 1 mg/kg orally; for inhibition at 3 mg/kg: 3 mg/kg orally. It counts as in vivo, BALB/cAJcl mice.
For series [3], the target named is T1, Human NLRP3.
Series [4] can be described thus: Solubility (Test E). The class given is physicochemical.
Series [5] in a line: Solubility (Test F), McIlvaine buffer pH 6.5. The following applies: 25 °C, pH 6.5, aqueous buffer, thermodynamic from solid, McIlvaine buffer pH 6.5, 25° C., 24 to 72 h, theoretical maximum 200 μM. The class given is physicochemical.
The target in series [6] is T1, Human NLRP3. The settings on record: Test C IC50, IL-1β release, THP-1 cells, LPS 2 μg/mL 24 h, BzATP 1 mM.
Series [7] addresses hERG (Homo sapiens (Human), UniProt Q12809). In words: hERG assay (Test D), SyncroPatch 384PE patch clamp, hERG-expressing CHO cells. It counts as cell-based. The settings on record: rt.
Setting [8] is: disodium hydrogenphosphate-citric acid (McIlvaine) buffer.

Structures are written as SMILES. Converted amounts (≈) assume the structure as drawn. Like-named read-outs stand apart in the source and are kept apart here.

T1 sequence (Q96P20 whole entry): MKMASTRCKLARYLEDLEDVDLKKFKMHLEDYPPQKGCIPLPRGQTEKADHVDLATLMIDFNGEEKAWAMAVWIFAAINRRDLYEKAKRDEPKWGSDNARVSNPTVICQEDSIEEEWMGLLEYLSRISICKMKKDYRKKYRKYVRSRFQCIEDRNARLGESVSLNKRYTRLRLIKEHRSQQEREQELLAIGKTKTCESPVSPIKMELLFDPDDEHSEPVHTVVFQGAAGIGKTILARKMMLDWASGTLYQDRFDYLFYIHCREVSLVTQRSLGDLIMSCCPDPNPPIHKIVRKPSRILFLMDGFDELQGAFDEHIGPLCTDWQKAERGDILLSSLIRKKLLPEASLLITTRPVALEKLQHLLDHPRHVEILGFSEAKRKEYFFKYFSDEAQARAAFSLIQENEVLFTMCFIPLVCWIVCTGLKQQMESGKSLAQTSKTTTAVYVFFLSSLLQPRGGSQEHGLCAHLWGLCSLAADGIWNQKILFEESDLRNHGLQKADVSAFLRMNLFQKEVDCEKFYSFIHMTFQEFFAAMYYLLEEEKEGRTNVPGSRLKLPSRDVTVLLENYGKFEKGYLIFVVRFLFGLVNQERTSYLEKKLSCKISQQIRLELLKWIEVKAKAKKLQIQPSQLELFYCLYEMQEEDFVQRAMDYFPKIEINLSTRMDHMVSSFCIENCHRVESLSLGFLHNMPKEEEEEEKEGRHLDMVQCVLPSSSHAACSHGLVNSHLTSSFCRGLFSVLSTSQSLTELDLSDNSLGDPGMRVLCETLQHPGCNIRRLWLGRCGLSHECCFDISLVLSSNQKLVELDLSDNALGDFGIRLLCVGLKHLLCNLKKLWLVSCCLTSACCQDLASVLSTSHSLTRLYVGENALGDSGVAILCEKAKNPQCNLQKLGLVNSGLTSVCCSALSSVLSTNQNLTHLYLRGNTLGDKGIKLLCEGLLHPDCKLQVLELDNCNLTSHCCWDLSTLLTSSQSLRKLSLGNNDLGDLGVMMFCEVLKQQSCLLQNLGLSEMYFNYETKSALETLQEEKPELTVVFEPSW
hERG, sequence (Q12809 whole entry): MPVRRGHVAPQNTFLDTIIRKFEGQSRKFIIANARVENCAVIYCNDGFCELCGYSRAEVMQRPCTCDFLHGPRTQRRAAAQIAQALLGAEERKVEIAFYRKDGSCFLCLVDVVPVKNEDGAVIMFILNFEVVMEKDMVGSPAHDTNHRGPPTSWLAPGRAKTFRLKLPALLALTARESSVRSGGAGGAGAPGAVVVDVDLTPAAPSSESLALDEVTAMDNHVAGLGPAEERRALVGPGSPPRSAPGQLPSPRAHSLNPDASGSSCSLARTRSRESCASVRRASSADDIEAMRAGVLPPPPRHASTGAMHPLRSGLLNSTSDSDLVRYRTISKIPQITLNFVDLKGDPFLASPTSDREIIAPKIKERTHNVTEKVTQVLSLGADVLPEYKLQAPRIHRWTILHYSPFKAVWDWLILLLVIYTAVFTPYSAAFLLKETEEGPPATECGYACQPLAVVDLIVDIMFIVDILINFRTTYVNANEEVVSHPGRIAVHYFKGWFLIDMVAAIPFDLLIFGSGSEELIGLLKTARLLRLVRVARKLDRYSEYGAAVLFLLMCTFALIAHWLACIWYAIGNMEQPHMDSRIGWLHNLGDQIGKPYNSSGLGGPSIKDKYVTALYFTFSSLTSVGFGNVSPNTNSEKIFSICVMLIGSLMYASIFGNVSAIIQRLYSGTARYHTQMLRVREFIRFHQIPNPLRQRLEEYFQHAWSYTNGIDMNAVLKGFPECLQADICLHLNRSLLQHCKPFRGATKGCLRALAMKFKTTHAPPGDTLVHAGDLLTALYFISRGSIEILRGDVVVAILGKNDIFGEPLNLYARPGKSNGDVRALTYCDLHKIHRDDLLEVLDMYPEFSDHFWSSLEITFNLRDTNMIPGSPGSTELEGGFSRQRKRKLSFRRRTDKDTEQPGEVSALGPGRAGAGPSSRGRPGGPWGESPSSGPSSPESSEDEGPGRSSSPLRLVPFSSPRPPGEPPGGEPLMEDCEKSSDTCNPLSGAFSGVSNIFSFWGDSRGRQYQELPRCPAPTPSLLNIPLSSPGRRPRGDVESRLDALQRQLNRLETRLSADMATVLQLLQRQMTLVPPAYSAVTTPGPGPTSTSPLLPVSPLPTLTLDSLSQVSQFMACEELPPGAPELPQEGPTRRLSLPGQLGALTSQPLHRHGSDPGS

As for `Oc1cc(C(F)(F)F)ccc1-c1nnc(N[C@@H]2CC[C@@H](O)C2)c2cnccc12` [Example 59, 2-(4-(((1R,3R)-3-hydroxycyclopentyl)amino)pyrido[3,4-d]pyridazin-1-yl)-5-(trifluoromethyl)phenol], in series [1], the 50% effective concentration (EC50) was 16 nM. In series [2], this compound yielded an inhibition at 1 mg/kg of 44%. For the same compound, in series [2], testing at 3 mg/kg gave an inhibition of 70%. The 50% inhibitory concentration (IC50) in series [3] is 9 nM; in series [6], 5 nM; in series [7], above 40000 nM. The solubility was 47 µM (≈ 18.3 µg/mL) in series [4] and above 78.1 µg/mL in series [5] (setting [8]).
In series [1], `Oc1cc(Cl)cc(F)c1-c1nnc(N[C@@H]2CCC[C@H](O)C2)c2cnccc12` [Example 46, 5-chloro-3-fluoro-2-[4-[[(1R,3S)-3-hydroxycyclohexyl]amino]pyrido[3,4-d]pyridazin-1-yl]phenol] yielded an EC50 of 37 nM. In addition, in series [2], at 1 mg/kg the inhibition was 23%. In series [2], the inhibition at 3 mg/kg turned out to be 65%. Further, the solubility in series [4] is 941 µM (≈ 366 µg/mL); in series [5] (setting [8]), above 77.8 µg/mL. For the same compound, the concentration for half-maximal inhibition (IC50) is 3 nM in series [6] and above 40000 nM in series [7].
`OC[C@@H](O)CNc1nnc(-c2c(O)cc(Cl)cc2F)c2ccccc12` [Example 9, (2S)-3-[[4-(4-chloro-2-fluoro-6-hydroxy-phenyl)phthalazin-1-yl]amino]propane-1,2-diol]: in series [1], the EC50 was found to be 164 nM. This compound registered an inhibition at 3 mg/kg in series [2] of 77%. This compound came in with a solubility in series [5] (setting [8]) of 67.3 µg/mL (≈ 185 µM). In series [6], this compound registered an IC50 of 11 nM.
Consider `Oc1cc(OC(F)(F)F)ccc1-c1nnc(N[C@@H]2CCCC[C@H]2O)c2cnccc12` [Example 56, 2-[4-[[(1R,2R)-2-hydroxycyclohexyl]amino]pyrido[3,4-d]pyridazin-1-yl]-5-(trifluoromethoxy)phenol], for which the response in series [1] was half-maximal at 25 nM (EC50). Besides, in series [2], the inhibition at 3 mg/kg was found to be 98%. Also, the concentration for half-maximal inhibition (IC50) in series [3] came to 8 nM; in series [6], 3 nM; in series [7] it was 19000 nM. The values for the solubility in series [4] and in series [5] (setting [8]) were 263 µM (≈ 111 µg/mL) and 14.5 µg/mL (≈ 34.5 µM), respectively.
`C[C@]1(O)CCC[C@@H](Nc2nnc(-c3ccc(C(F)(F)F)cc3O)c3ccncc23)C1` [Example 62, 2-[4-[[(1R,3S)-3-hydroxy-3-methyl-cyclohexyl]amino]pyrido[3,4-d]pyridazin-1-yl]-5-(trifluoromethyl)phenol] yielded an EC50 in series [1] of 60 nM. For the same compound, the inhibition at 3 mg/kg in series [2] was 71%. Besides, the solubility was found to be 120 µM (≈ 50.2 µg/mL) in series [4] and 25.7 µg/mL (≈ 61.4 µM) in series [5] (setting [8]). Moreover, the results for the IC50 in series [6] and in series [7] were 6 nM and above 40000 nM, respectively.
With `Oc1cc(C(F)(F)F)ccc1-c1nnc(N[C@@H]2CC[C@H](O)C2)c2cnccc12` [Example 60, 2-(4-(((1R,3S)-3-hydroxycyclopentyl)amino)pyrido[3,4-d]pyridazin-1-yl)-5-(trifluoromethyl)phenol], the concentration giving a half-maximal response (EC50) in series [1] is 17 nM. Further, in series [2], the inhibition at 1 mg/kg was found to be 60%. This compound came in with an inhibition at 3 mg/kg in series [2] of 97%. In addition, the half-inhibitory concentration (IC50) in series [3] was 12 nM; in series [6], below 3 nM; in series [7], above 40000 nM. The solubility in series [4] came to 26 µM (≈ 10.1 µg/mL); in series [5] (setting [8]) it was 10.3 µg/mL (≈ 26.4 µM).
On to `C[C@@]1(O)CCC[C@@H](Nc2nnc(-c3ccc(C(F)(F)F)cc3O)c3ccncc23)C1` [Example 61, 2-[4-[[(1R,3R)-3-hydroxy-3-methyl-cyclohexyl]amino]pyrido[3,4-d]pyridazin-1-yl]-5-(trifluoromethyl)phenol], for which, in series [1], the 50% effective concentration (EC50) was determined as 29 nM. This compound also yielded an inhibition at 3 mg/kg in series [2] of 97%. In addition, the solubility stood at 389 µM (≈ 163 µg/mL) in series [4] and 64 µg/mL (≈ 153 µM) in series [5]. For the same compound, the IC50 in series [6] stood at 7 nM; in series [7] it was 34000 nM.
Take `Cc1ccc2c(-c3ccc(C(F)(F)F)cc3O)nnc(NC[C@H](O)CO)c2c1` [Example 14, (2S)-3-[[4-[2-hydroxy-4-(trifluoromethyl)phenyl]-7-methyl-phthalazin-1-yl]amino]propane-1,2-diol]: the EC50 in series [1] amounted to 18 nM. In series [2], this compound gave an inhibition at 3 mg/kg of 75%. The solubility in series [4] was 135 µM (≈ 53.1 µg/mL); in series [5] (setting [8]), 56.3 µg/mL (≈ 143 µM). The compound further showed an IC50 in series [6] of 5 nM.
`C[C@@]1(O)CC[C@@H](Nc2nnc(-c3ccc(C(F)(F)F)cc3O)c3ccncc23)C1` [Example 38, 2-[4-[[(1R,3R)-3-hydroxy-3-methyl-cyclopentyl]amino]pyrido[3,4-d]pyridazin-1-yl]-5-(trifluoromethyl)phenol] displayed a concentration giving a half-maximal response (EC50) in series [1] of 27 nM. Further, the inhibition at 1 mg/kg in series [2] worked out at 29%. In series [2], this compound came in with an inhibition at 3 mg/kg of 83%. Moreover, the figures for the half-inhibitory concentration (IC50) in series [3], in series [6] and in series [7] were 16 nM, 9 nM and above 40000 nM, respectively. For the same compound, the solubility is 810 µM (≈ 328 µg/mL) in series [4] and above 80.9 µg/mL in series [5] (setting [8]).
For `CC(C)(O)CNc1nnc(-c2ccc(C(F)(F)F)cc2O)c2ccncc12` [Example 70, 2-[4-[(2-hydroxy-2-methyl-propyl)amino]pyrido[3,4-d]pyridazin-1-yl]-5-(trifluoromethyl)phenol], a half-maximal response in series [1] (EC50) required 67 nM. The same compound showed an inhibition at 3 mg/kg in series [2] of 98%. The IC50 in series [3] was 26 nM; in series [6] it was 10 nM; in series [7], above 40000 nM. The solubility amounted to 5 µM (≈ 1.89 µg/mL) in series [4] and 17.7 µg/mL (≈ 46.8 µM) in series [5] (setting [8]).
`Oc1cc(C(F)(F)F)cc(F)c1-c1nnc(N[C@@H]2CCC[C@H](O)C2)c2cnccc12` [Example 45, 3-fluoro-2-[4-[[(1R,3S)-3-hydroxycyclohexyl]amino]pyrido[3,4-d]pyridazin-1-yl]-5-(trifluoromethyl)phenol] displayed a concentration for a half-maximal effect (EC50) in series [1] of 44 nM. The same compound gave an inhibition at 3 mg/kg in series [2] of 82%. Besides, the values for the IC50 in series [3], in series [6] and in series [7] were 25 nM, 9 nM and above 40000 nM, respectively. The solubility in series [4] was 121 µM (≈ 51.1 µg/mL); in series [5] (setting [8]), 10.4 µg/mL (≈ 24.6 µM).
The compound `Oc1cc(C(F)(F)F)cc(F)c1-c1nnc(N[C@@H]2CCCC[C@H]2O)c2cnccc12` [Example 55, 3-fluoro-2-[4-[[(1R,2R)-2-hydroxycyclohexyl]amino]pyrido[3,4-d]pyridazin-1-yl]-5-(trifluoromethyl)phenol] yielded an EC50 in series [1] of 38 nM. Besides, testing at 3 mg/kg in series [2] gave an inhibition of 91%. The solubility was determined as 529 µM (≈ 223 µg/mL) in series [4] and 8.8 µg/mL (≈ 20.8 µM) in series [5] (setting [8]). For the same compound, the half-maximal inhibitory concentration (IC50) in series [6] was 6 nM; in series [7] it was above 40000 nM.
In series [1], `CC(C)(O)CNc1nnc(-c2c(O)cc(C(F)(F)F)cc2F)c2ccncc12` [Example 74, 3-fluoro-2-[4-[(2-hydroxy-2-methyl-propyl)amino]pyrido[3,4-d]pyridazin-1-yl]-5-(trifluoromethyl)phenol] gave a 50% effective concentration (EC50) of 204 nM. In series [2], this compound returned an inhibition at 3 mg/kg of 68%. In addition, the solubility in series [4] worked out at 17 µM (≈ 6.74 µg/mL); in series [5] (setting [8]), 12.1 µg/mL (≈ 30.5 µM). In series [6], this compound had a half-maximal inhibitory concentration (IC50) of 18 nM.
Regarding `Oc1cc(Cl)cc(F)c1-c1nnc(N[C@@H]2CCCC[C@H]2O)c2cnccc12` [Example 57, 5-chloro-3-fluoro-2-[4-[[(1R,2R)-2-hydroxycyclohexyl]amino]pyrido[3,4-d]pyridazin-1-yl]phenol], the half-maximal effective concentration (EC50) in series [1] was 17 nM. The same compound returned an inhibition at 1 mg/kg in series [2] of 42%. In series [2], this compound registered an inhibition at 3 mg/kg of 87%. Besides, the figures for the solubility in series [4] and in series [5] (setting [8]) were 596 µM (≈ 232 µg/mL) and 36.9 µg/mL (≈ 94.9 µM), respectively. Further, the IC50 was 5 nM in series [6] and above 40000 nM in series [7].
Turning to `C[C@]1(O)CC[C@@H](Nc2nnc(-c3ccc(C(F)(F)F)cc3O)c3ccncc23)C1` [Example 39, 2-[4-[[(1R,3S)-3-hydroxy-3-methyl-cyclopentyl]amino]pyrido[3,4-d]pyridazin-1-yl]-5-(trifluoromethyl)phenol], the 50% effective concentration (EC50) in series [1] was 59 nM. The same compound had an inhibition at 3 mg/kg in series [2] of 58%. Besides, the 50% inhibitory concentration (IC50) in series [3] was 18 nM; in series [6], 7 nM. In addition, the solubility was 48 µM (≈ 19.4 µg/mL) in series [4] and 10.2 µg/mL (≈ 25.2 µM) in series [5] (setting [8]).
As for `OC[C@@H](O)CNc1nnc(-c2c(O)cc(C(F)(F)F)cc2F)c2ccccc12` [Example 7, (2S)-3-[[4-[2-fluoro-6-hydroxy-4-(trifluoromethyl)phenyl]phthalazin-1-yl]amino]propane-1,2-diol], a half-maximal effect in series [1] (EC50) was put at 180 nM. In series [2], this compound displayed an inhibition at 1 mg/kg of 46%. The compound further had an inhibition at 3 mg/kg in series [2] of 95%. The IC50 in series [3] was 47 nM; in series [6], 22 nM; in series [7], above 40000 nM. In addition, the solubility in series [4] came to 582 µM (≈ 231 µg/mL); in series [5] (setting [8]) it was 70.3 µg/mL (≈ 177 µM).

Source of the values: patent publication US11970463B2, “Compounds and their use” (ASTRAZENECA AB, priority 2021, dated 2024).
